Laboratory results as given in patent US11365199B2, “Pyrazole compounds as modulators of FSHR and uses thereof” (Merck Patent GmbH, priority 2013, dated 2022).

How the values were obtained:
[1] = target: T1, follicle-stimulating hormone (FSH) receptor (Rattus norvegicus, UniProt P20395); test: Rat granulosa EC50 FSH (Assay B); type: cell-based; conditions: rat granulosa cells; read-out: Assay B: Rat granulosa EC50 FSH
T1 construct: endogenous in cells; host or cells: primary rat granulosa cells
T1 sequence (P20395 18-692): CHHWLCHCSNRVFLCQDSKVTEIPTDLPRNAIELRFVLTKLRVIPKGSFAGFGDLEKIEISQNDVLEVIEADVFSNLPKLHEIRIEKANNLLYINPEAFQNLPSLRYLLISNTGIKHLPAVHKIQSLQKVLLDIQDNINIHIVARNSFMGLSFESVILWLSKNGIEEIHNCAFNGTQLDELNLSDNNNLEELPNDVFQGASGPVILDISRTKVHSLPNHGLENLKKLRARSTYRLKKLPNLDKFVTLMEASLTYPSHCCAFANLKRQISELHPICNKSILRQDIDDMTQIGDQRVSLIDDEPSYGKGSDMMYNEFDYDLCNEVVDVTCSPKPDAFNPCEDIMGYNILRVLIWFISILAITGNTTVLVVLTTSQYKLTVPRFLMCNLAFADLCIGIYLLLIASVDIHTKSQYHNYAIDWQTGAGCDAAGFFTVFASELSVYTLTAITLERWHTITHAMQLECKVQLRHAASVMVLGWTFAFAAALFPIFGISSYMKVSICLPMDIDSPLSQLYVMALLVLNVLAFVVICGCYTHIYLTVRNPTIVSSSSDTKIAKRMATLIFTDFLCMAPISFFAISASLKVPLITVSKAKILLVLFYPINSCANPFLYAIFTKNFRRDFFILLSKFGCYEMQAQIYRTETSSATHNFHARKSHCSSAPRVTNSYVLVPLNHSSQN
Procedure: Rat Granulosa EC50 FSH (Assay B)
The assay was performed pursuant to the teaching of Yanofsky et al. (2006) Allosteric activation of the follicle-stimulating hormone (FSH) receptor by selective, nonpeptide agonists (JBC 281(19): 13226-13233, which is incorporated by reference in the disclosure of the invention).

FSHR = target: T2, FSHR (Homo sapiens, UniProt P23945); test: EC50 of cyclic AMP production in CHO FSHR cells + EC20 FSH (Assay A); type: cell-based; conditions: CHO FSHR cells + EC20 FSH, cAMP HTRF; read-out: Assay A: EC50 of cyclic AMP production
T2 construct: expressed in transfected cells; host or cells: CHO (Cho-FSHR-LUC-1-1-43)
T2 sequence (P23945 18-695): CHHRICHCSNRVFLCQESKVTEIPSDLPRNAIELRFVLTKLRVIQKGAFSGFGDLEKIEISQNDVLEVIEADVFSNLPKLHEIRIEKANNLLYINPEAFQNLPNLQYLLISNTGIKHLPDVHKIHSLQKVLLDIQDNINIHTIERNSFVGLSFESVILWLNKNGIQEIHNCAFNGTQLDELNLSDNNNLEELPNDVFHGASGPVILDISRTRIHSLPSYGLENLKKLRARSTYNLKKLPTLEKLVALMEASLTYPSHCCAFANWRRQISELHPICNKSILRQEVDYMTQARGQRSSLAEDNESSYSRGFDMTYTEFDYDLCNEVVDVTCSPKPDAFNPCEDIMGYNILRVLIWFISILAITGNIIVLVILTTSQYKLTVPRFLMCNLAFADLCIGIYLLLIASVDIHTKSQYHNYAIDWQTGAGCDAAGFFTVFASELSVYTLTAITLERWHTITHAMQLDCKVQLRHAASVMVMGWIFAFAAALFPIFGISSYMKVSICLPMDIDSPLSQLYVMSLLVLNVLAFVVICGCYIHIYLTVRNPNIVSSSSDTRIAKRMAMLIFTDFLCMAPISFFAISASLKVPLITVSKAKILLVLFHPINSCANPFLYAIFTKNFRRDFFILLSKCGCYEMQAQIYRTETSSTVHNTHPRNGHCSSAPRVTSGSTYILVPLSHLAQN
How it was run: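 cAMP HTRF read-out (665 nm/620 nm ratio) after 1 h at 37° C of Cho-FSHR-LUC cells treated with serially diluted test compound plus EC20 FSH ([…]) and IBMX (final 200 μM). Responses given as percent of maximal FSH-standard effect.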

Structure (SMILES)	EC50 [1]	EC50 (FSHR)
COc1cc2c(cc1CC(C)C)-c1c(c(C(=O)N(C)C(C)(C)C)nn1-c1cccs1)CO2 [Compound 91, 8-Isobutyl-7-methoxy-1-thiophen-2-yl-1,4-dihydro-chromeno[4,3-c]pyrazole-3-carboxylic Acid tert-butyl-methyl-amide]	1000 to 5000 nM	< 100 nM
COC(=O)C1CCCN(C(=O)c2nn(-c3ccsc3)c3c2COc2cc(OC)c(OC(C)C)cc2-3)CC1 (centres unmarked) [Compound 24, 1-(8-Isopropoxy-7-methoxy-1-thiophen-3-yl-1,4-dihydro-chromeno[4,3-c]pyrazole-3-carbonyl)-azepane-4-carboxylic acid methyl ester]	1000 to 5000 nM	< 100 nM
CCn1cc(-c2cc3c(cc2OC)OCc2c(C(=O)N4CCOCC4(C)C)nn(-c4ccsc4)c2-3)cn1 [Compound 210, (3,3-Dimethyl-morpholin-4-yl)-[8-(1-ethyl-1H-pyrazol-4-yl)-7-methoxy-1-thiophen-3-yl-1,4-dihydro-chromeno[4,3-c]pyrazol-3-yl]-methanone]	> 5000 nM	< 100 nM
[2H]C([2H])([2H])N(C(=O)c1nn(-c2ccsc2)c2c1COc1cc(OC)c(-c3ccn(C)n3)cc1-2)C1(C)COC1 [Compound 116]	1000 to 5000 nM	< 100 nM
COc1cc2c(cc1C=C(C)C)-c1c(c(C(=O)N(C)C(C)(C)C)nn1-c1ccsc1)CO2 [Compound 6, 7-Methoxy-8-(2-methyl-propenyl)-1-thiophen-3-yl-1,4-dihydro-chromeno[4,3-c]pyrazole-3-carboxylic Acid tert-butyl-methyl-amide]	1000 to 5000 nM	< 100 nM
COc1cc2c(cc1-c1ccn(C)n1)-c1c(c(C(=O)N3CCOCC34COC4)nn1-c1ccsc1)CO2 [Compound 154, (2,8-Dioxa-5-aza-spiro[3.5]non-5-yl)-[7-methoxy-8-(1-methyl-1H-pyrazol-3-yl)-1-thiophen-3-yl-1,4-dihydro-chromeno[4,3-c]pyrazol-3-yl]-methanone]	1000 to 5000 nM	< 100 nM
COc1cc2c(cc1-c1cnn(CCN3CCOCC3)c1)-c1c(c(C(=O)N3CCOCC3(C)C)nn1-c1ccsc1)CO2 [Compound 202, (3,3-Dimethyl-morpholin-4-yl)-{7-methoxy-8-[1-(2-morpholin-4-yl-ethyl)-1H-pyrazol-4-yl]-1-thiophen-3-yl-1,4-dihydro-chromeno[4,3-c]pyrazol-3-yl}-methanone]	100 to 1000 nM	100 to 1000 nM

Further lines, results first:

EC50 [1]	EC50 (FSHR)	Structure (SMILES)
100 to 1000 nM	100 to 1000 nM	COc1cc2c(cc1-c1cnn(C(=O)OC(C)(C)C)c1)-c1c(c(C(=O)N(C)C(C)(C)C)nn1-c1ccsc1)CO2 [Compound 20, 4-[3-(tert-Butyl-methyl-carbamoyl)-7-methoxy-1-thiophen-3-yl-1,4-dihydro-chromeno[4,3-c]pyrazol-8-yl]-pyrazole-1-carboxylic acid tert-butyl ester]
< 100 nM	< 100 nM	COc1cc2c(cc1-c1cn(C)nn1)-c1c(c(C(=O)N(C)C(C)(C)C)nn1-c1ccsc1)CO2 [Compound 153, 7-Methoxy-8-(1-methyl-1H-[1,2,3]triazol-4-yl)-1-thiophen-3-yl-1,4-dihydro-chromeno[4,3-c]pyrazole-3-carboxylic acid tert-butyl-methyl-amide]
100 to 1000 nM	< 100 nM	[2H]C([2H])([2H])OCC1(N(C(=O)c2nn(-c3ccsc3)c3c2COc2cc(OC)c(-c4ccn(C)c4)cc2-3)C([2H])([2H])[2H])COC1 [Compound 113]
< 100 nM	< 100 nM	COc1cc2c(cc1-c1cnn(CC3OCCO3)c1)-c1c(c(C(=O)N3CCOCC3(C)C)nn1-c1ccsc1)CO2 [Compound 209, (3,3-Dimethyl-morpholin-4-yl)-[8-(1-[1,3]dioxolan-2-ylmethyl-1H-pyrazol-4-yl)-7-methoxy-1-thiophen-3-yl-1,4-dihydro-chromeno[4,3-c]pyrazol-3-yl]-methanone]
100 to 1000 nM	< 100 nM	COc1cc2c(cc1-c1ccn(C)n1)-c1c(c(C(=O)N3CCNCC3(C)C)nn1-c1ccsc1)CO2 [Compound 169, (2,2-Dimethyl-piperazin-1-yl)-[7-methoxy-8-(1-methyl-1H-pyrazol-3-yl)-1-thiophen-3-yl-1,4-dihydro-chromeno[4,3-c]pyrazol-3-yl]-methanone]
100 to 1000 nM	100 to 1000 nM	[2H]C([2H])([2H])N(C(=O)c1nn(-c2ccsc2)c2c1COc1cc(OC)c(-c3ccn(C)c3)cc1-2)C1CCOC1 (centres unmarked) [Compound 146]
